Several values for one entry are separate records, joined by “and”; a condition that tells them apart may be missing. Identical values can stand only once.
What was measured:
NCI-H358 (K-Ras G12C) = experiment: CellTiter-Glo cell viability assay, NCI-H358; type: cell-based, human; details: Homo sapiens, NCI-H358, 120 h, 5-day treatment; read-out: H358 Cell Viability assay data (K-Ras G12C, IC50)
Procedure, shortened: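 Viability read-out was luminescent (CellTiter-Glo) on day 5 of compound exposure in K-Ras G12C NCI-H358 cells. Values were expressed as percent of mean DMSO signal and fitted with a four-parameter logistic curve.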

KRAS G12V = KRAS G12V (Homo sapiens (Human), UniProt P01116+P62937, G12V); experiment: Ras-Raf disruption/FRET/MOA assay (BRAF RBD, Cyclophilin A); type: biochemical; details: read-out: KRAS G12V FRET IC50
Procedure, shortened: (§1)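 First, 25 μM Cyclophilin A, 12.5 nM His6-Ras-GMPPNP and 50 nM GST-BRAF RBD are mixed with diluted compound at pH 7.3. Next, 3 h at 25° C. Then 10 nM anti-His Eu-W1024 plus 50 nM anti-GST allophycocyanin for 1.5 h before TR-FRET reading.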

KRAS G13C = KRAS G13C (Homo sapiens (Human), UniProt P01116+P62937, G13C); experiment: as above; type: biochemical; details: read-out: KRAS G13C FRET IC50
Procedure, shortened: as §1

NRAS Q61K = NRAS Q61K (Homo sapiens (Human), UniProt P01111+P62937, Q61K); experiment: as above; type: biochemical
Procedure, shortened: (§2)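 Measured: compound-facilitated Cyclophilin A:Ras complex blocking RAF RBD binding. Conditions: 12.5 nM Ras-GMPPNP, 50 nM BRAF RBD, 25 μM CypA, 3 h plus 1.5 h detection. Output: IC50 from TR-FRET ratio.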

KRAS WT = KRAS WT (Homo sapiens (Human), UniProt P01116+P62937); experiment: as above; type: biochemical; details: read-out: KRAS WT FRET data IC50
Procedure, shortened: as §1

KRAS Q61H = KRAS Q61H (Homo sapiens (Human), UniProt P01116+P62937, Q61H); experiment: as above; type: biochemical
Procedure, shortened: as §1

KRAS G12S = KRAS G12S (Homo sapiens (Human), UniProt P01116+P62937, G12S); experiment: as above; type: biochemical; details: read-out: KRAS G12S FRET IC50
Procedure, shortened: as §1

NRAS G12C = NRAS G12C (Homo sapiens (Human), UniProt P01111+P62937, G12C); experiment: as above; type: biochemical; details: read-out: NRAS G12C FRET data IC50
Procedure, shortened: as §2

KRAS G13D = KRAS G13D (Homo sapiens (Human), UniProt P01116+P62937, G13D); experiment: as above; type: biochemical; details: read-out: KRAS G13D FRET data IC50
Procedure, shortened: as §1

KRAS G12C = KRAS G12C (Homo sapiens (Human), UniProt P01116+P62937, G12C); experiment: as above; type: biochemical; details: read-out: KRAS G12C FRET IC50
Procedure, shortened: as §1

NRAS Q61R = NRAS Q61R (Homo sapiens (Human), UniProt P01111+P62937, Q61R); experiment: as above; type: biochemical
Procedure, shortened: as §2

NRAS WT = NRAS WT (Homo sapiens (Human), UniProt P01111+P62937); experiment: as above; type: biochemical
Procedure, shortened: as §2

KRAS G12D = KRAS G12D (Homo sapiens (Human), UniProt P01116+P62937, G12D); experiment: as above; type: biochemical; details: read-out: KRAS G12D FRET IC50
Procedure, shortened: as §1

[1] = target: K-Ras G12C(GMP-PNP) binding to BRAF RBD (Homo sapiens (Human), UniProt P01116+P62937, G12C); experiment: Disruption of BRAF RBD interaction with K-Ras (FRET / MOA assay), K-Ras G12C; type: biochemical; details: read-out: KRAS G12C FRET IC50
Procedure, shortened: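 TR-FRET readout: after 3 h compound incubation at 25 °C, anti-His Eu and anti-GST allophycocyanin (10 and 50 nM final) added for a further 1.5 h. Dilution series was 10-point, 3-fold, top 30 μM final. Ras–cyclophilin A ternary complex formation blocks the BRAF RBD interaction; IC50 derived from reduced FRET ratio relative to DMSO.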

[2] = tested on: Capan-1 cells (K-Ras G12V); experiment: CellTiter-Glo cell viability, Capan-1; type: cell-based, human; details: Homo sapiens, CAPAN-1, 120 h, K-Ras G12V, 5-day treatment; read-out: Capan-1 Cell Viability IC50
Procedure, shortened: (§3)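 Viability read by luminescence on day 5 after direct compound addition to cells, following ~30 min room-temperature equilibration. Values expressed as percent of mean DMSO signal, curves fitted with a four-parameter logistic model.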

[3] = tested on: NCI-H358 cells (K-Ras G12C); experiment: CellTiter-Glo cell viability, NCI-H358; type: cell-based, human; details: Homo sapiens, NCI-H358, 120 h, K-Ras G12C, 5-day treatment; read-out: H358 Cell Viability IC50
Procedure, shortened: as §3

Chain of KRAS G12D (P01116 other isoform, or with tags, fused parts or gaps G12D): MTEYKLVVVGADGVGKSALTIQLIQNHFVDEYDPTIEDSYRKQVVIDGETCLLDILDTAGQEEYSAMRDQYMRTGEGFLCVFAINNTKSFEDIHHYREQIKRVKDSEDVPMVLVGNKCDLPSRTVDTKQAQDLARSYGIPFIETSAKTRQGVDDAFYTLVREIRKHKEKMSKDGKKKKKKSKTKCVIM
Chain of KRAS G12D (P62937 whole entry): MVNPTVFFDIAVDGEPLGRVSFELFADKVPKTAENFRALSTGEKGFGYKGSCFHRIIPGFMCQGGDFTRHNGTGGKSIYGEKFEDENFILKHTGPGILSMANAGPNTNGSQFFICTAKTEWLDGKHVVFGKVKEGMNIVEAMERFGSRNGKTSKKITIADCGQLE
Chain of NRAS Q61K (P01111 whole entry Q61K): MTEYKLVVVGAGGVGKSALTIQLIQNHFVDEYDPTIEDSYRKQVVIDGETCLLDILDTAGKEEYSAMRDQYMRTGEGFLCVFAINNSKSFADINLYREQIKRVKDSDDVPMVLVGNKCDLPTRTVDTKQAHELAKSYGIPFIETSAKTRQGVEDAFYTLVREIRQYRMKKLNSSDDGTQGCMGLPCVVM
Chain of NRAS Q61K (P62937 whole entry): as the sequence (P62937 whole entry) above
Chain of KRAS G12C (P01116-2 other isoform, or with tags, fused parts or gaps G12C): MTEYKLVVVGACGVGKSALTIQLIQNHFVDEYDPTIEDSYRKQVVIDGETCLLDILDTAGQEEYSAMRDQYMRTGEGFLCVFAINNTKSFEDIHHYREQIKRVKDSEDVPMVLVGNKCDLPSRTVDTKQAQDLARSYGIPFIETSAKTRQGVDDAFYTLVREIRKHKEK
Chain of KRAS G12C (P62937 whole entry): as the sequence (P62937 whole entry) above
Chain of NRAS Q61R (P01111 whole entry Q61R): as the sequence (P01111 whole entry Q61K) above, with K61R counted along it
Chain of NRAS Q61R (P62937 whole entry): as the sequence (P62937 whole entry) above
Chain of KRAS G12V (P01116 other isoform, or with tags, fused parts or gaps G12V): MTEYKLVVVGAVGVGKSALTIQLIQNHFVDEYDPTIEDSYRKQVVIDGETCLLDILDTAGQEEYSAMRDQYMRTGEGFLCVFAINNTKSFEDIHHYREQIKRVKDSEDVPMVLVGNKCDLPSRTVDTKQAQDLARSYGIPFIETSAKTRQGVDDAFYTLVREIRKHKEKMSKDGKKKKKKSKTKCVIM
Chain of KRAS G12V (P62937 whole entry): as the sequence (P62937 whole entry) above
Chain of KRAS WT (P01116 other isoform, or with tags, fused parts or gaps): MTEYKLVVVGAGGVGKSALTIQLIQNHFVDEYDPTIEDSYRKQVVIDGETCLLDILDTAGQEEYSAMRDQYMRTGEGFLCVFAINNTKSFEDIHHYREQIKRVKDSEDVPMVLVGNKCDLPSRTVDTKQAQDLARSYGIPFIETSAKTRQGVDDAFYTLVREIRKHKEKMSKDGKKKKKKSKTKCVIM
Chain of KRAS WT (P62937 whole entry): as the sequence (P62937 whole entry) above
Chain of KRAS G12S (P01116 other isoform, or with tags, fused parts or gaps G12S): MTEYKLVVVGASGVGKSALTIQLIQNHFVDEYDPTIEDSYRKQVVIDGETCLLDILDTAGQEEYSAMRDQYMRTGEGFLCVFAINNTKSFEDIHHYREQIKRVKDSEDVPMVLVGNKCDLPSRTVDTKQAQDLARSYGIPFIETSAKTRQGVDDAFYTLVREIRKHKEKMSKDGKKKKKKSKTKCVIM
Chain of KRAS G12S (P62937 whole entry): as the sequence (P62937 whole entry) above
Chain of NRAS G12C (P01111 whole entry G12C): as the sequence (P01111 whole entry Q61K) above, with G12C, K61Q counted along it
Chain of NRAS G12C (P62937 whole entry): as the sequence (P62937 whole entry) above
Chain of KRAS Q61H (P01116 other isoform, or with tags, fused parts or gaps Q61H): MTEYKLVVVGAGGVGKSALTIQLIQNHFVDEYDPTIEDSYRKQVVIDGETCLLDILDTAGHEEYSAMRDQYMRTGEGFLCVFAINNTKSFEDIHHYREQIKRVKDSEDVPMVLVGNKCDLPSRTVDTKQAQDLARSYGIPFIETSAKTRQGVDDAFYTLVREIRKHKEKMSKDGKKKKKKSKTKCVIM
Chain of KRAS Q61H (P62937 whole entry): as the sequence (P62937 whole entry) above
Chain of KRAS G13C (P01116 other isoform, or with tags, fused parts or gaps G13C): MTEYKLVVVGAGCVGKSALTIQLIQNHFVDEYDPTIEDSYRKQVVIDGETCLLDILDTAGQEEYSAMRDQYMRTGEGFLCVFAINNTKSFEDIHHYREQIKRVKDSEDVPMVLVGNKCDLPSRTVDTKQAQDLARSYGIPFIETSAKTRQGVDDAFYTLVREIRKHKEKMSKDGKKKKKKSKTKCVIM
Chain of KRAS G13C (P62937 whole entry): as the sequence (P62937 whole entry) above
Chain of K-Ras G12C(GMP-PNP) binding to BRAF RBD (P01116 other isoform, or with tags, fused parts or gaps G12C): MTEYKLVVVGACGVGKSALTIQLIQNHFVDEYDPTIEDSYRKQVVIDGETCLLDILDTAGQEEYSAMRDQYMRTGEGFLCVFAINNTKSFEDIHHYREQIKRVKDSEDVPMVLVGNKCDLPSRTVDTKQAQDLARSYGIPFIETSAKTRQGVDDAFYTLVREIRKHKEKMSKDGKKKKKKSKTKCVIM
Chain of K-Ras G12C(GMP-PNP) binding to BRAF RBD (P62937 whole entry): as the sequence (P62937 whole entry) above
Chain of NRAS WT (P01111 whole entry): as the sequence (P01111 whole entry Q61K) above, with K61Q counted along it
Chain of NRAS WT (P62937 whole entry): as the sequence (P62937 whole entry) above
Chain of KRAS G13D (P01116 other isoform, or with tags, fused parts or gaps G13D): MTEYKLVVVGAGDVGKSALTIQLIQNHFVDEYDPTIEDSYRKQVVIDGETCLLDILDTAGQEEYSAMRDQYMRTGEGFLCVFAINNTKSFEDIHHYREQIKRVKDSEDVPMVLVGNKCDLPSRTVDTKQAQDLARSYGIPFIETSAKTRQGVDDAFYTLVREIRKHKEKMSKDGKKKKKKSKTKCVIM
Chain of KRAS G13D (P62937 whole entry): as the sequence (P62937 whole entry) above

IC50 (NCI-H358 (K-Ras G12C)) | IC50 (KRAS G12V) | IC50 (KRAS G13C) | IC50 (NRAS Q61K) | IC50 (KRAS WT) | IC50 (KRAS Q61H) | IC50 (KRAS G12S) | IC50 (NRAS G12C) | IC50 (KRAS G13D) | IC50 (KRAS G12C) | IC50 (NRAS Q61R) | IC50 (NRAS WT) | IC50 (KRAS G12D) | IC50 [1] | IC50 [3] | SMILES | IC50 [2]
> 10000 nM | 100 to 1000 nM and 1000 to 10000 nM | 100 to 1000 nM | 100 to 1000 nM | 100 to 1000 nM and 1000 to 10000 nM | 10 to 100 nM | 100 to 1000 nM and 1000 to 10000 nM | 100 to 1000 nM and 1000 to 10000 nM | 100 to 1000 nM and 1000 to 10000 nM | 100 to 1000 nM and 1000 to 10000 nM | 1000 to 10000 nM | 100 to 1000 nM | 1000 to 10000 nM and > 10000 nM | > 10000 nM |  | CCn1c(-c2cccnc2[C@H](C)OC)c2c3cc(ccc31)-c1cc(O)cc(c1)C[C@H](NC(=O)C(C)C1CCOCC1)C(=O)N1CCC[C@H](N1)C(=O)OCC(C)(C)C2 (stereo partly drawn) [Compound A236] | 
> 10000 nM | 1000 to 10000 nM | 1000 to 10000 nM | 100 to 1000 nM | 1000 to 10000 nM | 100 to 1000 nM | 1000 to 10000 nM | 1000 to 10000 nM | > 10000 nM | 1000 to 10000 nM | 1000 to 10000 nM | 1000 to 10000 nM | > 10000 nM | > 10000 nM |  | CCn1c(-c2cccnc2[C@H](C)OC)c2c3cc(ccc31)-c1csc(n1)C[C@H](NC(=O)[C@H](C(C)C)N(C)C(=O)N1CCC1C(=O)O)C(=O)N1CCC[C@H](N1)C(=O)OCC(C)(C)C2 (stereo partly drawn) [Compound A271] | > 10000 nM
10 to 100 nM | 1000 to 10000 nM | 100 to 1000 nM | 100 to 1000 nM | 100 to 1000 nM | 10 to 100 nM | 100 to 1000 nM | 100 to 1000 nM | 100 to 1000 nM | 100 to 1000 nM | 100 to 1000 nM | 100 to 1000 nM | 100 to 1000 nM | 100 to 1000 nM |  | CCn1c(-c2cccnc2[C@H](C)OC)c2c3cc(ccc31)-c1csc(n1)C[C@H](NC(=O)[C@H](C(C)C)N(C)C(=O)N1CC[C@@]13CCCN(C)C3)C(=O)N1CCC[C@H](N1)C(=O)OCC(C)(C)C2 [Compound A468] | 100 to 1000 nM
100 to 1000 nM | 1000 to 10000 nM | 100 to 1000 nM | 100 to 1000 nM | 100 to 1000 nM | 100 to 1000 nM | 100 to 1000 nM | 100 to 1000 nM | 100 to 1000 nM | 100 to 1000 nM | 1000 to 10000 nM | 100 to 1000 nM | 100 to 1000 nM | 100 to 1000 nM |  | CCn1c(-c2cccnc2[C@H](C)OC)c2c3cc(ccc31)-c1csc(n1)C[C@H](NC(=O)[C@H](C(C)C)N(C)C(=O)N(C)C[C@H]1CCN1C)C(=O)N1CCC[C@H](N1)C(=O)OCC(C)(C)C2 [Compound A469] | 100 to 1000 nM
 | 100 to 1000 nM | 100 to 1000 nM | 100 to 1000 nM | 100 to 1000 nM | 100 to 1000 nM | 1000 to 10000 nM | 100 to 1000 nM | 1000 to 10000 nM | 100 to 1000 nM | 100 to 1000 nM | 100 to 1000 nM | 1000 to 10000 nM |  | 10 to 100 nM | CCn1c(-c2cccnc2[C@H](C)OC)c2c3cc(ccc31)-c1csc(n1)C[C@H](NC(=O)[C@H](C(C)C)N(C)C(=O)N1CC(O)(COC)C1)C(=O)N1CCC[C@H](N1)C(=O)OCC(C)(C)C2 [Compound A553] | 100 to 1000 nM
 | 10 to 100 nM | 10 to 100 nM | 100 to 1000 nM | 10 to 100 nM | 10 to 100 nM | 10 to 100 nM | 10 to 100 nM | 100 to 1000 nM | 10 to 100 nM | 100 to 1000 nM | 10 to 100 nM | 100 to 1000 nM |  | 100 to 1000 nM | CCn1c(-c2cccnc2[C@H](C)OC)c2c3cc(ccc31)-c1cc(O)cc(c1)C[C@H](NC(=O)[C@H](C(C)C)N(C)C(=O)[C@H]1C[C@H]1O)C(=O)N1CCC[C@H](N1)C(=O)OCC(C)(C)C2 [Compound A554] | 1000 to 10000 nM

Reference: US20250195521A1 (Revolution Medicines, Inc., priority 2020, published 2025)
